Patent US5824657A, “Aminoacyl sulfamides for the treatment of hyperproliferative disorders” (priority 1997, dated 1998)
Where two headings read alike, the source gives them in different places.

What was measured:
[1] = system: aminoacyl-tRNA synthetases (aaRS) isolated from HeLa cells; experiment: IC50 determination, aaRS charging and trichloroacetic acid precipitation assay, aaRS partially purified from HeLa cell extracts; type: biochemical; settings: preincubation 20 minutes at 25° C., reaction 5-20 minutes
Protocol: IC50 determinations for the aminoacyl-tRNA synthetases (aaRS) isolated from HeLa cells were carried out using a modification of the aaRS charging and trichloroacetic acid precipitation assay described previously (see examples: D. Kern et. al., Biochemie, 61, 1257-1272 (1979) and J. Gilbart et. al. Antimicrobial Agents and Chemotherapy, 37(1), 32-38 (1993)). […] For practical purposes, the minimal acceptable value is approximately 2000 cpm per 10 minute reaction. The final dilution of the HeLa extract in the assays for the aaRS enzymes varies from 50 to 1200-fold.
Test compounds were typically present as serial dilutions in concentrations ranging from 0.35 nM to 35 μM. Test compound solutions were prepared by dissolving test compounds in 100% dimethyl sulfoxide and diluting to the final concentration with 50 mM HEPES, pH 7.5. IC50 determinations were typically performed in duplicate with each experiment containing 4-8 concentrations of test compound and with duplicate controls containing no inhibitor.
The reaction was incubated at 25° C. for 5-20 minutes. At specified time points a 15 microliter aliquot was removed and added to a well of a Millipore filtration plate (Multiscreen-FB, MAFB NOB 10) containing 100 microliters of cold 5% (wt/vol) trichloroacetic acid. Trichloroacitic acid precipitable material was collected by filtration on a Millipore Multiscreen filtration station, washed twice with cold 5% trichloroacetic acid, twice with water, and dried. Plates were typically allowed to air dry for several hours or baked at 50° C. in a vacuum oven for 30 minutes. The radioactivity on the dried plates was quantitated by the addition of Packard Microscint-20 to the wells and counting with a Packard TopCount scintillation counter.
Inhibitor activity typically was reported as a percentage of the control aaRS activity. […] The IC50 (in nM, Hela Cells) values of representative compounds of the present invention are listed in column 5 of Table I.

[2] = system: human epidermoid carcinoma cell line A-253 (ATCC HTB 41); experiment: MTT assay, human epidermoid carcinoma cell line; type: cell-based; settings: read-out: IC50 Human Epidermoid Carcinoma Cells ATCC # HTB 41
Protocol: The MTT assay was used as a model to measure the inhibitory effects of the compounds of Formula I. The MTT assay is considered the most convenient modern assay for the determination of cell viability and cell proliferation. An MTT assay kit is commercially available (Chemicon International Inc., Temecula, Calif.). The MTT assay was performed according to manufacturer's instructions as outlined below.
A human epidermoid carcinoma cell line, designated as A-253 (ATCC HTB 41), was obtained in frozen vials from the American Type Culture Collection, Rockville, Md. Monolayer cultures were established from the vials by growth in RPMI 1640 medium supplemented with 10% fetal bovine serum (heat-inactivated), 2 mM L-glutamine, and pen-strep (100 units/ml; 100 μg/ml). The cultures were incubated at 37±1.5° C. in 5±1% CO2 in humidified air and were passaged weekly to avoid overgrowth. The laboratory cultures used for the present study were at passage seven after receipt of frozen stocks from ATCC.
Compounds of Formula I in powder form were stored at room temperature in plastic micro centrifuge tubes. Each tube was placed in a plastic bag containing desiccant. Each test compound was prepared as a 2 mg/ml solution in RPMI 1640 medium (non-supplemented) on the day of use, and the appropriate dilutions were prepared with the same vehicle.
Each compound was handled by sterile techniques in Class II, Type B biological safety cabinets.
The reference control compound was methotrexate at concentrations of 0.5 μg/ml to 50 μg/ml. A 1 mg/ml stock was prepared on the day of dosing and diluted to the appropriate concentrations using RPMI 1640 medium (non-supplemented).
A blank control was included in the MTT assay in order to determine the absorbance associated with the absence of any cells. This control was RPMI 1640 culture medium carried through the same procedures used to culture the cells in the microwell plates and to conduct the MTT assay color development. The microwell plate reader was zeroed against the blank control prior to recording the absorbance in the test wells.
Laboratory monolayer cultures of A-253 cells were trypsinized and seeded at a concentration of 24,000 cells in 0.05 ml of complete RPMI 1640 culture medium per well in 96-well plates. Eight wells in a column were seeded for each test condition. The blank control was prepared by adding 0.05 ml of culture medium (no cells) to 8 wells in the first column of each plate. A separate microwell plate was used for each compound of Formula I.
The test compound treatments were initiated immediately after seeding the cells by adding 0.05 ml of treatment medium to each microwell. Ten different test compound concentrations were prepared in culture medium (without serum), and each concentration was applied to a volume of eight wells on the appropriate plate. The final concentrations in the wells were 1000, 500, 250, 100, 50, 25, 10, 5, 2.5, and 1 μg/ml.
An untreated (zero-dose) condition was included as a column of 8 wells on each plate. The zero-dose and blank control wells received 0.05 ml of culture medium (without serum). The microwell plates were placed in an incubator at 37±1.5° C. in 5% CO2 in humidified air for an exposure period of 72±0.5 hours.
After the exposure period, 0.1 ml of MTT dye solution (0.5 mg/ml in serum free RPMI 1640 medium) was added to each micowell. The cultures were returned to the incubator for 2±0.1 hours. Then the medium was removed from each well and placed into a clean microwell plate for temporary storage. A volume of 0.1 ml of color development solution (Solution C, isopropanol with 0.04M HCl, Chemicon MTT Assay kit, Chemicon International Inc., Temecula, Calif.) was added to each new microwell. The contents were carefully mixed and allowed to sit at room temperature for approximately 1 hour. The medium that was saved from each microwell then was pipetted back into the well from which it originally came. […]

[3] = system: normal human skin fibroblasts cell line ATCC CRL 1501; experiment: MTT assay, normal skin fibroblasts; type: cell-based; settings: Skin fibroblast, similar manner to HTB 41 assay
Protocol: The MTT assay was used as a model to measure the inhibitory effects of the compounds of Formula I. The MTT assay is considered the most convenient modern assay for the determination of cell viability and cell proliferation. […] The MTT assay was performed according to manufacturer's instructions as outlined below.
The cultures were returned to the incubator for 2±0.1 hours. Then the medium was removed from each well and placed into a clean microwell plate for temporary storage. A volume of 0.1 ml of color development solution (Solution C, isopropanol with 0.04M HCl, Chemicon MTT Assay kit, Chemicon International Inc., Temecula, Calif.) was added to each new microwell. […] The absorbance at 540 nm wavelength was determined in a microwell plate reader within two hours of the final preparation of the plates.
The absorbance at 540 nm was recorded for each well by the microwell plate reader after the instrument was zeroed against the blank controls for each plate. The mean absorbance for each test condition was calculated and compared to the mean absorbance for the zero-dose wells in order to obtain percent values. […]

[4] = system: isoleucyl-tRNA synthetase; settings: cited from earlier work
[5] = system: Gram positive bacterial pathogens such as Staphylococcus aureus; settings: cited from earlier work
[6] = A253, MTT assay, exposure 72 hours, plot extended by eye for compounds active at lowest dose

C[C@@H](O)[C@H](N)C(=O)NS(=O)(=O)NC[C@H]1O[C@@H](n2cnc3c(N)ncnc32)[C@H](O)[C@@H]1O [XVIII]
IC50 [1]: 40 nM
IC50 [2, 6]: 9630 nM

Nc1ncnc2c1ncn2[C@@H]1O[C@H](CNS(=O)(=O)NC(=O)[C@@H](N)CC(=O)O)[C@@H](O)[C@H]1O [VIII]
IC50 [1]: 174 nM
IC50 [2, 6]: 5000 nM

CC(C)C[C@H](N)C(=O)NS(=O)(=O)NC[C@H]1O[C@@H](n2cnc3c(N)ncnc32)[C@H](O)[C@@H]1O [III]
IC50 [1]: 0.5 nM
IC50 [2, 6]: 1370 nM
IC50 [3]: 13000 nM

NCC(=O)NS(=O)(=O)NC[C@H]1O[C@@H](n2cnc3c(N)ncnc32)[C@H](O)[C@@H]1O [IX]
IC50 [1]: 50 nM
IC50 [2, 6]: 1490 nM

Nc1ncnc2c1ncn2[C@@H]1O[C@H](CNS(=O)(=O)NC(=O)[C@@H](N)Cc2ccc(O)cc2)[C@@H](O)[C@H]1O [V]
IC50 [1]: 17 nM
IC50 [2, 6]: 790 nM

CC[C@H](C)[C@H](N)C(=O)NS(=O)(=O)NC[C@H]1O[C@@H](n2cnc3c(N)ncnc32)[C@H](O)[C@@H]1O [I]
IC50 [1]: 0.9 nM
IC50 [2, 6]: 3050 nM

Nc1ncnc2c1ncn2[C@@H]1O[C@H](CNS(=O)(=O)NC(=O)[C@@H](N)Cc2c[nH]cn2)[C@@H](O)[C@H]1O [XIII]
IC50 [1]: 2 nM
IC50 [2, 6]: 2690 nM

CC(C)[C@H](N)C(=O)NS(=O)(=O)NC[C@H]1O[C@@H](n2cnc3c(N)ncnc32)[C@H](O)[C@@H]1O [II]
IC50 [1]: 27 nM
IC50 [2, 6]: 4950 nM

CSCC[C@H](N)C(=O)NS(=O)(=O)NC[C@H]1O[C@@H](n2cnc3c(N)ncnc32)[C@H](O)[C@@H]1O [IV]
IC50 [1]: 3 nM
IC50 [2, 6]: 1050 nM

Nc1ncnc2c1ncn2[C@@H]1O[C@H](CNS(=O)(=O)NC(=O)[C@@H](N)CO)[C@@H](O)[C@H]1O [VI, 5'-deoxy-adenosine 5'-N-(N-L-seryl)sulfamide]
IC50 [1]: 140 nM
IC50 [2, 6]: 9250 nM

C[C@H](N)C(=O)NS(=O)(=O)NC[C@H]1O[C@@H](n2cnc3c(N)ncnc32)[C@H](O)[C@@H]1O [VII]
IC50 [1]: 22 nM
IC50 [2, 6]: 1440 nM

CC(=CC(=O)OCCCCCCCCC(=O)O)CC1OCC(CC2OC2C(C)C(C)O)C(O)C1O (stereo not drawn) [Pseudomonic acid A]
inhibition of isoleucyl adenylate formation [4]: inhibits isoleucyl adenylate formation
inhibition of protein synthesis and growth [5]: inhibition of protein synthesis, followed by growth inhibition

Nc1ncnc2c1ncn2[C@@H]1O[C@H](CNS(=O)(=O)NC(=O)[C@@H](N)Cc2c[nH]c3ccccc23)[C@@H](O)[C@H]1O [Compound X, 5'-deoxy-adenosine 5'-N-(N-L-tryptophanyl)sulfamide]
IC50 [1]: 300 nM
IC50 [2, 6]: 530 nM
IC50 [3]: 80 nM

NC(=O)CC[C@H](N)C(=O)NS(=O)(=O)NC[C@H]1O[C@@H](n2cnc3c(N)ncnc32)[C@H](O)[C@@H]1O [XVI]
IC50 [1]: 400 nM
IC50 [2, 6]: 3590 nM

CN(Cc1cnc2nc(N)nc(N)c2n1)c1ccc(C(=O)N[C@@H](CCC(=O)O)C(=O)O)cc1 [Methotrexate, reference compound]
IC50 ([2]; A253, 72 h): 40 nM

Nc1ncnc2c1ncn2[C@@H]1O[C@H](CNS(=O)(=O)NC(=O)[C@@H](N)CCC(=O)O)[C@@H](O)[C@H]1O [XII]
IC50 [2, 6]: 10500 nM

N=C(N)NCCC[C@H](N)C(=O)NS(=O)(=O)NC[C@H]1O[C@@H](n2cnc3c(N)ncnc32)[C@H](O)[C@@H]1O [XVII]
IC50 [1]: 14 nM
IC50 [2, 6]: 3990 nM

CC1=C(/C=C/C(C)=C/C=C/C(C)=C/C(=O)O)C(C)(C)CCC1 [Retinoic acid, reference compound]
IC50 ([2]; A253, 72 h): 266000 nM

NCCCC[C@H](N)C(=O)NS(=O)(=O)NC[C@H]1O[C@@H](n2cnc3c(N)ncnc32)[C@H](O)[C@@H]1O [Compound XI]
IC50 [1]: 8 nM
IC50 [2, 6]: 2530 nM

Nc1ncnc2c1ncn2[C@@H]1O[C@H](CNS(=O)(=O)NC(=O)[C@@H]2CCCN2)[C@@H](O)[C@H]1O [XV]
IC50 [1]: 1 nM
IC50 [2, 6]: 900 nM
